# Assay results published in US5916925A, “Pharmaceutical composition for treatment of dementia” (Takeda Chemical Industries, Ltd., priority 1996, dated 1999).
# Values joined by “and” are separate entries in the source; they are usually repeats but may differ in a detail not shown here. Identical values can stand only once. Counter-ions that a name gives are not always drawn. Like-named read-outs stand apart in the source and are kept apart here.
# Tests used:
# GPT = experiment: hepatic clinical laboratory value GPT in patients; format: in vivo, human; conditions: for GPT Level: single patients
# Experimental: (§1) In patients with senile dementia of Alzheimer's type, a double-blind placebo controlled multicenter comparative study was conducted under the conditions shown below.
# (§2) 451 patients with senile dementia of Alzheimer's type (154 males, 297 females)
# (§3) (1) Placebo administration
# (§4) Oral administration just after every meal
# (§5) Clinical laboratory values
# GOT = experiment: hepatic clinical laboratory value GOT in patients; format: in vivo, human; conditions: for GOT Level: single patients
# Experimental: as §1, §2, §3, §4, §5
# [1] = system: patients with senile dementia of Alzheimer's type; experiment: double-blind placebo controlled multicenter study, efficacy parameters (ADAS, CGI, NOSGER, SKT); format: in vivo, human
# Experimental: as §1, §3, §4
# [2] = system: patients with senile dementia of Alzheimer's type; experiment: clinical study, safety assessment and dropouts; format: in vivo, human; conditions: for subjects dropped out: subjects in this study (groups not separated)
# Experimental: as §1, §2, §3
# Group 3 (placebo administration), 153 patients (54 males, 99 females; average age 70 years)
# as §4, §5
# [3] = system: passive avoidance learning deficit in old rats; experiment: passive avoidance learning in old rats; format: in vivo, rats of the Fischer 344 strain; conditions: idebenone 3 mg/kg, Compound A 0.3 mg/kg, oral, or both; for retention trials, learning deficit: 24 hours after shock loading
# Experimental: (§6) The old rats were divided into the following four groups.
# (§7) Passive avoidance learning tests were started on day 14 of treatment, and Morris water maze learning tests on day 20 of treatment.
# The passive avoidance learning test was performed using a chamber consisting of light and dark compartments. […] After a rat moved to the dark compartment, the rat was kept there for about 10 seconds with the door closed. One to two hours after such habituation trials, acquisition trials were performed.
# In acquisition trials, after a rat moved to the dark compartment, a foot shock (0.4 mA, 3 seconds) was given through the grid floor. Retention trials were performed 24 hours after acquisition trials.
# In each trial, the latency from opening of the slide door till the animal moved to the dark compartment (step-through latency) was measured.
# [4] = system: water maze learning deficit in old rats; experiment: Morris water maze learning in old rats; format: in vivo, rats of the Fischer 344 strain; conditions: for average latency to find the platform for all trials, vs control group / water maze learning deficit, overall: idebenone 3 mg/kg, Compound A 0.3 mg/kg, oral, or both
# Experimental: as §6, §7
# In pretraining which was performed for swimming training and motivation for escaping from water, four trials were performed using a water bath, 80 cm in diameter, in a condition that the platform was visible. From the following day, using a water bath, 120 cm in diameter, learning trials, one session (four trials) per day, were performed with the platform being placed below the water.
# [5] = system: patients with senile dementia of Alzheimer's type; conditions: 90 mg per day per adult; cited from earlier work
# patients = conditions: cited from earlier work
# [6] = 6 Months of Administration, 90 mg 3 times daily
# [7] = 6 Months of Administration, 120 mg 3 times daily
# [8] = 270 or 360 mg per day, 6 months, vs placebo
# [9] = Pre-administration (baseline), 90 mg 3 times daily group
# [10] = Pre-administration (baseline), 120 mg 3 times daily group
# [11] = 90 mg, 120 mg 3-times-a-day and placebo
structure (smiles),measurement,setting,value
"COC1=C(OC)C(=O)C(CCCCCCCCCCO)=C(C)C1=O [idebenone, 6-(10-hydroxydecyl) -2,3-dimethoxy-5-methyl-1,4-benzoquinone]",GPT Level,GPT; [6],61 U/L and 54 U/L and 34 U/L and 43 U/L and 26 U/L and 37 U/L and 35 U/L and 50 U/L
same,GPT Level,GPT; [7],26 U/L and 39 U/L and 43 U/L and 55 U/L and 25 U/L and 38 U/L and 60 U/L
same,change in GPT level,GPT; [8],little change in GPT level and GOT level
same,GPT Level,GPT; [9],25 U/L and 34 U/L and 36 U/L and 63 U/L and 9 U/L and 14 U/L and 29 U/L and 33 U/L
same,GPT Level,GPT; [10],22 U/L and 14 U/L and 28 U/L and 29 U/L and 37 U/L and 31 U/L
same,GOT Level,GOT; [6],45 U/L and 38 U/L and 60 U/L and 86 U/L and 49 U/L and 32 U/L and 47 U/L and 26 U/L and 29 U/L
same,GOT Level,GOT; [7],41 U/L and 27 U/L and 28 U/L and 34 U/L and 37 U/L and 23 U/L and 131 U/L
same,change in GOT level,GOT; [8],little change in GPT level and GOT level
same,GOT Level,GOT; [9],19 U/L and 27 U/L and 33 U/L and 32 U/L and 15 U/L and 29 U/L and 13 U/L and 22 U/L
same,GOT Level,GOT; [10],23 U/L and 24 U/L and 29 U/L and 21 U/L and 25 U/L
same,"ADAS Sum Score, relief compared with placebo","[1]; 90 mg 3-times-a-day, 6 months",significant relief
same,"ADAS Sum Score, relief compared with placebo","[1]; 90 mg 3-times-a-day, 12 months",significant relief
same,"ADAS Sum Score, dose dependence of effect","[1]; 90 mg and 120 mg 3-times-a-day, 6 and 12 months",dose dependent
same,"ADAS Cognitive Score, differences among groups",[1]; [11],"significant differences among the three groups were noted, with dose dependency"
same,"CGI Global Improvement, differences among groups",[1]; [11],"significant differences among the three groups were noted, with dose dependency"
same,"CGI Severity of Disease, differences among groups",[1]; [11],"significant differences among the three groups were noted, with dose dependency"
same,"NOSGER IADL, differences among groups",[1]; [11],"significant differences among the three groups were noted, with dose dependency"
same,"NOSGER Sum Score, differences among groups",[1]; [11],"significant differences among the three groups were noted, with dose dependency"
same,"SKT, differences among groups",[1]; [11],"significant differences among the three groups were noted, with dose dependency"
same,"ADAS Sum Score, relief compared with placebo","[1]; 120 mg 3-times-a-day, 6 months",significant relief
same,"ADAS Sum Score, relief compared with placebo","[1]; 120 mg 3-times-a-day, 12 months",significant relief
same,effect in comparison with published clinical data on tacrine,"[1]; 270 mg (90 mg, 3-times-a-day)",better effects
same,effect in comparison with published clinical data on tacrine,"[1]; 360 mg (120 mg, 3-times-a-day)",better effects
same,"magnitude of effect, irrespective of assessment method",[1]; 360 mg idebenone administration group,marked effect
same,symptom progression,[1]; FIGS. 1 to 7,symptom progression was surely suppressed
same,"symptom-relieving and symptom progression-suppressing effects, 12 months vs 6 months",[1]; period exceeding 6 months,greater symptom-relieving and symptom progression-suppressing effects are noted at 12 months than at 6 months
same,incidence and severity of accompanying symptoms,[2]; 90 mg and 120 mg 3-times-a-day vs placebo,No differences were noted among the three groups
same,subjects dropped out,[2]; by 6 months,9%
same,subjects dropped out,[2]; by 12 months,about 15%
same,elevation of clinical laboratory values (GOT and GPT),[2]; idebenone administration groups,very low
same,major objective and subjective symptoms,[2]; three groups together,"vertigo, anorexia, sleep disturbance and arthralgia"
same,"retention trials, learning deficit",[3],tended to show improvements in learning deficit in old rats but the effect was not significant
same,"passive avoidance learning deficit, overall",[3],did not improve passive avoidance learning deficit in old rats
same,"average latency to find the platform for all trials, vs control group",[4],did not show significant shortening of average latency compared with the control group
same,"water maze learning deficit, overall",[4],did not improve water maze learning deficit in old rats
same,water maze learning deficit (latency to find the platform),"[4]; latter period of training, idebenone 3 mg/kg oral",slight tendency toward improvement in water maze learning deficit
same,efficacy in senile dementia of Alzheimer's type,[5],effective
"O=C(CCC1CCN(Cc2ccccc2)CC1)c1ccc2c(c1)NCCCC2 [Compound A, 8-[1-oxo-3-(phenylmetyl)piperidin-4-yl]propyl]-2,3,4,5-tetrahydro-1H-1-benzazepine fumarate]","retention trials, learning deficit",[3],tended to show improvements in learning deficit in old rats but the effect was not significant
same,"passive avoidance learning deficit, overall",[3],did not improve passive avoidance learning deficit in old rats
same,water maze learning (latency to find the platform),[4]; day 2 of experiment,significant improvement
same,water maze learning (latency to find the platform),[4]; day 3 of experiment,did not differ from the control group
same,"average latency to find the platform for all trials, vs control group",[4],did not show significant shortening of average latency compared with the control group
same,"water maze learning deficit, overall",[4],did not improve water maze learning deficit in old rats
Nc1c2c(nc3ccccc13)CCCC2 [tacrine],patients who withdrew from the treatment,patients; 30-week administration of tacrine,74%
same,subjects dropped out,"patients; high-dose tacrine group, by 30 weeks",74%
same,subjects dropped out,"patients; low-dose tacrine group, until final administration by 30 weeks",59%
same,subjects dropped out,"patients; moderate-dose tacrine group, by 30 weeks",71%
same,dropouts or discontinuations due to adverse reactions,"patients; tacrine, study period",a large number of dropouts or discontinuations occurred due to adverse reactions
same,adverse effects on long-term administration,patients; tacrine,hepatic toxicity
